The experiment concerns HCV replicon. Kind of experiment: HCV replicon replication assay (NPT ELISA) in Huh-7 replicon-containing cells. It counts as cell-based. As to conditions: Hepatitis C virus, 72 h; HCV replicon in Huh-7 cells, three days incubation; read-out: EC50. In short, it runs like this:
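Replication was scored by capture ELISA of neomycin phosphotransferase, whose level tracks replicon replication, after graded compound treatment. The cells were Huh-7 harbouring an HCV-IRES/neo/EMCV-IRES/NS3–NS5B/3′-NTR replicon, plated at 6000-7500 cells/well and dosed 24 h later at 60-70% confluence; interferon alpha was the positive control.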
Turning to `C=C[C@@H]1C[C@]1(NC(=O)[C@@H]1C[C@@H](Oc2nc(-c3ccccc3)cc3cc(OC)ccc23)CN1C(=O)[C@@H](CC(=O)N1CCOCC1)C(C)(C)C)C(=O)NS(=O)(=O)C1CC1` [Compound 71, (2S,4R)-1-((S)-2-tert-butyl-4-morpholino-4-oxobutanoyl)-N-((1R,2S)-1-(cyclopropylsulfonyl-carbamoyl)-2-vinylcyclopropyl)-4-(6-methoxy-3-phenylisoquinolin-1-yloxy)pyrrolidine-2-carboxamide], the EC50 is under 1 µM.
For `COc1ccc2c(O[C@@H]3C[C@@H](C(=O)N[C@@H](C)C(=O)NS(=O)(=O)C4CC4)N(C(=O)[C@@H](CC(=O)N4CCCCC4)C(C)(C)C)C3)cc(-c3ccccc3)nc2c1` [Compound 114, (2S,4R)-1-((S)-2-tert-butyl-4-oxo-4-(piperidin-1-yl)butanoyl)-N-((S)-1-(cyclopropanesulfon-amido)-1-oxopropan-2-yl)-4-(7-methoxy-2-phenylquinolin-4-yloxy)pyrrolidine-2-carboxamide] the value was 1 to 10 µM.
The figure for `C=C[C@@H]1C[C@]1(NC(=O)[C@@H]1C[C@@H](Oc2cc(-c3ccccc3)nc3cc(OC)ccc23)CN1C(=O)[C@@H](CC(=O)NC1CCCC1)C(C)(C)C)C(=O)NS(=O)(=O)C1CC1` [Compound 49, (2S,4R)-1-((S)-2-tert-butyl-4-(cyclopentylamino)-4-oxobutanoyl)-N-((1R,2S)-1-(cyclopropyl-sulfonylcarbamoyl)-2-vinylcyclopropyl)-4-(7-methoxy-2-phenylquinolin-4-yloxy)pyrrolidine-2-carboxamide] is under 1 µM; for `C=C[C@@H]1C[C@]1(NC(=O)[C@@H]1C[C@@H](Oc2cc(-c3nc(C(C)C)cs3)nc3cc(OC)ccc23)CN1C(=O)[C@@H](CC(=O)N1CCCCC1)C(C)(C)C)C(=O)NS(=O)(=O)C1CC1` [Compound 230, (2S,4R)-1-((S)-2-tert-butyl-4-oxo-4-(piperidin-1-yl)butanoyl)-N-((1R)-1-(cyclopropyl-sulfonylcarbamoyl)-2-vinylcyclopropyl)-4-(2-(4-isopropylthiazol-2-yl)-7-methoxyquinolin-4-yloxy)pyrrolidine-2-carboxamide] it is under 1 µM.
On to `C=C[C@@H]1C[C@]1(NC(=O)[C@@H]1C[C@@H](Oc2cc(-c3ccccc3)nc3cc(OC)ccc23)CN1C(=O)[C@@H](CC(=O)N1CCCCC1)C(C)(C)C)C(=O)NS(=O)(=O)c1ccc(Cl)cc1` [Compound 67, (2S,4R)-1-((S)-2-tert-butyl-4-oxo-4-(piperidin-1-yl)butanoyl)-N-((1R,2S)-1-(4-chlorophenyl-sulfonylcarbamoyl)-2-vinylcyclopropyl)-4-(7-methoxy-2-phenylquinolin-4-yloxy)pyrrolidine-2-carboxamide], for which the half-maximal effective concentration (EC50) was under 1 µM.
For `C=CC1C[C@]1(NC(=O)[C@@H]1C[C@@H](Oc2cc(-c3ccccc3)nc3cc(OC)ccc23)CN1C(=O)[C@@H](CC(=O)N1CCCC(CNC(=O)OC(C)(C)C)C1)C(C)(C)C)C(=O)NS(=O)(=O)C1CC1` (stereo partly drawn) [Compound 168, tert-butyl (1-((S)-3-((2S,4R)-2-((1R,2S)-1-(cyclopropyl-sulfonylcarbamoyl)-2-vinylcyclopropyl-carbamoyl)-4-(7-methoxy-2-phenylquinolin-4-yloxy)pyrrolidine-1-carbonyl)-4,4-dime-thylpentanoyl)piper-idin-3-yl)methylcarbamate] the value was under 1 µM; for `C=C[C@@H]1C[C@]1(NC(=O)[C@@H]1C[C@@H](Oc2cc(-c3ccccc3)nc3cc(OC)ccc23)CN1C(=O)[C@@H](CC(=O)N1CCCCC1)C1CC1)C(=O)NS(=O)(=O)C1CC1` [Compound 121, (2S,4R)-1-((S)-2-cyclopropyl-4-oxo-4-(piperidin-1-yl)butanoyl)-N-((1R,2S)-1-(cyclopropylsulfonyl-carbamoyl)-2-vinylcyclopropyl)-4-(7-methoxy-2-phenylquinolin-4-yloxy)pyrrolidine-2-carboxamide], under 1 µM.
The figure for `COc1ccc2c(O[C@@H]3C[C@@H](C(=O)NC4(C(=O)NS(=O)(=O)C5CC5)CCCC4)N(C(=O)[C@@H](CC(=O)N4CCCCC4)C(C)(C)C)C3)cc(-c3ccccc3)nc2c1` [Compound 98, (2S,4R)-1-((S)-2-tert-butyl-4-oxo-4-(piperidin-1-yl)butanoyl)-N-(1-(cyclopropylsulfonyl-carbamoyl)cyclo-pentyl)-4-(7-methoxy-2-phenylquinolin-4-yloxy)pyrrolidine-2-carboxamide] is 1 to 10 µM.
Turning to `C=C[C@@H]1C[C@]1(NC(=O)[C@@H]1C[C@@H](Oc2cc(-c3ccccc3)nc3cc(OC)ccc23)CN1C(=O)[C@@H](CC(=O)N1CCCCC1)C(C)(C)C)C(=O)NS(=O)(=O)c1cn(C)cn1` [Compound 73, (2S,4R)-1-((S)-2-tert-butyl-4-oxo-4-(piperidin-1-yl)butanoyl)-4-(7-methoxy-2-phenylquinolin-4-yloxy)-N-((1R,2S)-1-(1-methyl-1H-imidazol-4-ylsulfonylcarbamoyl)-2-vinylcycloprop-yl)pyrrolidine-2-carboxamide], the EC50 lay within 1 to 10 µM.
As to `C=C[C@@H]1C[C@]1(NC(=O)[C@@H]1C[C@@H](Oc2cc(-c3ccccc3)nc3cc(OC)ccc23)CN1C(=O)[C@@H](CC(=O)N1CCCCC1)CC(C)(C)C)C(=O)NS(=O)(=O)C1CC1` [Compound 104, (2S,4R)-N-((1R,2S)-1-(cyclopropyl-sulfonylcarbamoyl)-2-vinylcyclopropyl)-1-((R)-4,4-dimethyl-2-(2-oxo-2-(piperidin-1-yl)ethyl)pentanoyl)-4-(7-methoxy-2-phenylquinolin-4-yloxy)pyrrolidine-2-carboxamide], the half-maximal effective concentration (EC50) is under 1 µM.
The figure for `C=C[C@@H]1C[C@]1(NC(=O)[C@@H]1C[C@@H](Oc2cc(-c3ccccc3)nc3cc(OC)ccc23)CN1C(=O)[C@@H](CC(=O)N1CCCCC1)C(C)(C)C)C(=O)NS(=O)(=O)C1(Cl)CC1` [Compound 158, (2S,4R)-1-((S)-2-tert-butyl-4-oxo-4-(piperidin-1-yl)butanoyl)-N-((1R,2S)-1-(1-chlorocyclopropyl-sulfonyl-carbamoyl)-2-vinylcyclopropyl)-4-(7-methoxy-2-phenylquinolin-4-yloxy)pyrrolidine-2-carboxamide] is under 1 µM.
For `C=C[C@@H]1C[C@]1(NC(=O)[C@@H]1C[C@@H](Oc2cc(-c3csc(N(C)C)n3)nc3cc(OC)ccc23)CN1C(=O)[C@@H](CC(=O)N1CCCCC1)C(C)(C)C)C(=O)NS(=O)(=O)C1CC1` [Compound 137, (2S,4R)-1-((S)-2-tert-butyl-4-oxo-4-(piperidin-1-yl)butanoyl)-N-((1R,2S)-1-(cyclo-propylsulfonyl-carbamoyl)-2-vinylcyclopropyl)-4-(2-(2-(dimethyl-amino)thiazol-4-yl)-7-methoxyquinolin-4-yloxy)pyrrolidine-2-carboxamide] the value was under 1 µM; for `C=C[C@@H]1C[C@]1(NC(=O)[C@@H]1C[C@@H](Oc2cc(-c3ccccc3)nc3cc(OC)ccc23)CN1C(=O)[C@@H](CC(=O)N1CCCC1C(F)(F)F)C(C)(C)C)C(=O)NS(=O)(=O)C1CC1` (stereo partly drawn) [Compound 176, (2S,4R)-1-((2S)-2-tert-butyl-4-oxo-4-(2-(trifluoro-methyl)pyrrolidin-1-yl)butanoyl)-N-((1R,2S)-1-(cyclopropylsulfonyl-carbamoyl)-2-vinylcyclopropyl)-4-(7-methoxy-2-phenylquinolin-4-yloxy)pyrrolidine-2-carboxamide], under 1 µM; for `C=C[C@@H]1C[C@]1(NC(=O)[C@@H]1C[C@@H](Oc2cc(-c3ccccc3)nc3cc(OC)ccc23)CN1C(=O)[C@@H](CC(=O)N1C(C(=O)O)CC2CCCCC21)C(C)(C)C)C(=O)NS(=O)(=O)C1CC1` (stereo partly drawn) [Compound 142, 1-((S)-3-((2S,4R)-2-((1R,2S)-1-(cyclo-propylsulfonyl-carbamoyl)-2-vinyl-cyclopropyl-carbamoyl)-4-(7-methoxy-2-phenylquinolin-4-yloxy)pyrrolidine-1-carbonyl)-4,4-dimethylpentano-yl)octahydro-1H-indole-2-carboxylic acid], under 1 µM.
The figure for `C=C[C@@H]1C[C@]1(NC(=O)[C@@H]1C[C@@H](Oc2cc(-c3csc(NC(C)C)n3)nc3c(C)c(OC)ccc23)CN1C(=O)[C@@H](CC(=O)N1CCC(C(F)(F)F)CC1)C(C)(C)C)C(=O)NS(=O)(=O)C1CC1` [Compound 238, (2S,4R)-1-((S)-2-tert-butyl-4-oxo-4-(4-(trifluoro-methyl)piperidin-1-yl)butanoyl)-N-((2S)-1-(cyclopropyl-sulfonylcarbamoyl)-2-vinylcyclopropyl)-4-(2-(2-(isopropyl-amino)thiazol-4-yl)-7-methoxy-8-methylquinolin-4-yloxy)pyrrolidine-2-carboxamide] is under 1 µM; for `C=C[C@H]1C[C@]1(NC(=O)[C@@H]1C[C@@H](Oc2cc(-c3ccccc3)nc3cc(OC)ccc23)CN1C(=O)[C@@H](CC(=O)N1CCCCC1)C1CCCC1)C(=O)NS(=O)(=O)C1CC1` [Compound 86, (2S,4R)-1-((S)-2-cyclopentyl-4-oxo-4-(piperidin-1-yl)butanoyl)-N-((1R,2R)-1-(cyclo-propylsulfonyl-carbamoyl)-2-vinylcyclopropyl)-4-(7-methoxy-2-phenylquinolin-4-yloxy)pyrrolidine-2-carboxamide] it is under 1 µM.
With `C=C[C@@H]1C[C@]1(NC(=O)[C@@H]1C[C@@H](Oc2cc(-c3ccccn3)nc3cc(OC)ccc23)CN1C(=O)[C@@H](CC(=O)N1CCOCC1)C(C)(C)C)C(=O)NS(=O)(=O)C1CC1` [Compound 166, (2S,4R)-1-((S)-2-tert-butyl-4-morpholino-4-oxobutanoyl)-N-((1R,2S)-1-(cyclopropylsulfonyl-carbamoyl)-2-vinylcyclopropyl)-4-(7-methoxy-2-(pyridin-2-yl)quinolin-4-yloxy)pyrrolidine-2-carboxamide], the EC50 was under 1 µM.
